From ChEMBL document CHEMBL1201862, “PubChem BioAssay data set” (2004) come the findings set out here.

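Step 1: Grow cells in 96-well plates. Step 2: Expose to compound for 48 hours at 5 concentrations. Step 3: Interpolate endpoints linearly; if unreached, use highest concentration. GI50: concentration for 50% inhibition of growth.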 Calls of active or inactive are those of the source. No stated cut-off is given here; in the data, active = GI50 up to about 1.1 µM and inactive = higher.

Some test systems named below: 786-0; ACHN; CAKI-1; DU-145; HCT-116; HL-60; HOP-92; LOX IMVI; MDA-MB-435; MOLT-4; Malme-3M; NCI-H23; RPMI-8226; SF-539; SK-MEL-28; SK-MEL-2; SNB-19; SNB-75; SW-620; SF-295.
What all share (test): inhibition of tumour cell growth, NCI panel, 48 h

Take `O=C1Nc2ccccc2C1Cc1ccccc1` (stereo unspecified): the GI50 with 786-0, in the assay on ACHN, with CAKI-1, in the assay on DU-145, in the assay on HCT-116 and with HL-60 was > 100 µM (inactive) each time. In addition, the GI50 in the assay on HOP-92, with LOX IMVI, in the assay on MDA-MB-435, in the assay with MOLT-4, with Malme-3M and in the assay on NCI-H23 was > 100 µM (inactive) each time. The GI50 in the assay on RPMI-8226 was > 100 µM (inactive); in the assay with SF-539 it was > 100 µM (inactive); in the assay on SK-MEL-28, > 100 µM (inactive); in the assay with SK-MEL-2, > 100 µM (inactive); in the assay on SNB-19 it was > 100 µM (inactive); with SNB-75, 0.296 µM (active). In addition, in the assay with SW-620, the GI50 was > 100 µM (inactive).
Regarding `COC(=O)c1ccc2c(c1)S/C(=C/c1ccc3ccc4cccc5ccc1c3c45)S2`, the GI50 is > 100 µM (inactive) in the assay on 786-0; > 100 µM (inactive) in the assay with ACHN; 40.1 µM (inactive) in the assay on CAKI-1; > 100 µM (inactive) in the assay on DU-145; 95.9 µM (inactive) in the assay on HCT-116; 20.7 µM (inactive) in the assay on HL-60. In addition, the GI50 with HOP-92 is 43.5 µM (inactive); in the assay on LOX IMVI, > 100 µM (inactive); with MDA-MB-435, 26.6 µM (inactive); in the assay with MOLT-4 it was > 100 µM (inactive); in the assay on Malme-3M, 32.7 µM (inactive); with NCI-H23, 19 µM (inactive). In addition, the GI50 in the assay with RPMI-8226 is 38.3 µM (inactive); in the assay with SF-295, 40.8 µM (inactive); in the assay with SF-539 it was > 100 µM (inactive); in the assay with SK-MEL-2 it was > 100 µM (inactive); in the assay on SNB-19, 50.6 µM (inactive); in the assay with SNB-75 it was 17.3 µM (inactive). The GI50 in the assay on SW-620 is 27.6 µM (inactive).
On to `CC(C)(C)c1ccc2c(c1)CNCCNCc1cc(C(C)(C)C)ccc1OCC1(CO2)COc2ccc(C(C)(C)C)cc2CNCCNCc2cc(C(C)(C)C)ccc2OC1`, for which the GI50 was 0.25 µM (active) with 786-0; 1.6 µM (inactive) in the assay on ACHN; 1.41 µM (inactive) in the assay on CAKI-1; 1.73 µM (inactive) in the assay with DU-145; 0.288 µM (active) in the assay with HCT-116; 0.179 µM (active) in the assay with HL-60. Moreover, the GI50 in the assay with HOP-92 is 1.26 µM (inactive); with LOX IMVI, 0.243 µM (active); with MDA-MB-435, 0.271 µM (active); in the assay with MOLT-4 it was 0.225 µM (active); in the assay with Malme-3M, 1.41 µM (inactive); in the assay with NCI-H23 it was 0.948 µM (active). The GI50 is 0.372 µM (active) with RPMI-8226; 0.968 µM (active) in the assay with SF-295; 0.933 µM (active) with SF-539; 1.71 µM (inactive) in the assay on SK-MEL-28; 1.51 µM (inactive) with SK-MEL-2; 0.935 µM (active) with SNB-19. Also, the values for the GI50 in the assay on SNB-75 and with SW-620 were 1.51 µM (inactive) and 0.501 µM (active), respectively.
Turning to `NNC(=O)c1ccccc1NC(=O)/C(=C/c1ccccc1)NC(=O)c1ccccc1`, the GI50 was > 100 µM (inactive) in the assay with 786-0; > 100 µM (inactive) in the assay on ACHN; > 100 µM (inactive) with CAKI-1; > 100 µM (inactive) with DU-145; 88.1 µM (inactive) with HCT-116; 76.9 µM (inactive) with HL-60. For the same compound, the GI50 was > 100 µM (inactive) with HOP-92; 68.1 µM (inactive) with LOX IMVI; 54.3 µM (inactive) in the assay with MDA-MB-435; > 100 µM (inactive) in the assay with MOLT-4; > 100 µM (inactive) in the assay with Malme-3M; > 100 µM (inactive) with NCI-H23. The GI50 with RPMI-8226 was > 100 µM (inactive); in the assay on SF-295, > 100 µM (inactive); in the assay on SF-539 it was > 100 µM (inactive); in the assay with SK-MEL-28 it was > 100 µM (inactive); with SK-MEL-2, > 100 µM (inactive); in the assay on SNB-19 it was 43 µM (inactive). For the same compound, the GI50 with SNB-75 is 70.1 µM (inactive); in the assay on SW-620, > 100 µM (inactive).
Consider `COc1c(C)c(OC)c2c(c1O)[C@@H]1[C@@H]3Cc4c(OC)c(C)c(OC)c(O)c4[C@H](CNC(=O)c4ccc5ccccc5n4)N3[C@@H](C#N)[C@H](C2)N1C`, for which the GI50 in the assay with 786-0 is 0.000494 µM (active); in the assay on ACHN it was 0.00199 µM (active); in the assay on CAKI-1 it was 0.00401 µM (active); in the assay with DU-145, 0.00206 µM (active); with HCT-116 it was 0.000491 µM (active); in the assay on HL-60, 0.000363 µM (active). Moreover, the GI50 with HOP-92 was 0.000363 µM (active); in the assay with LOX IMVI it was 0.00026 µM (active); in the assay with MDA-MB-435 it was 0.00116 µM (active); in the assay on MOLT-4, 0.00016 µM (active); with Malme-3M it was 0.000162 µM (active); in the assay on NCI-H23 it was 0.000459 µM (active). Also, the GI50 in the assay on RPMI-8226 was 0.000324 µM (active); in the assay with SF-295 it was 0.0018 µM (active); with SF-539, 0.0017 µM (active); in the assay with SK-MEL-28, 0.00251 µM (active); in the assay with SK-MEL-2, 0.000296 µM (active); in the assay on SNB-19, 0.00569 µM (active). Further, the GI50 with SNB-75 is 0.00262 µM (active); in the assay with SW-620, 0.00033 µM (active).
Consider `O=[N+]([O-])C1=Cc2c(O)ccc(O)c2C2c3ccccc3NC12` (stereo unspecified), for which the GI50 is 12.1 µM (inactive) in the assay with 786-0; 5.83 µM (inactive) in the assay with ACHN; 4.36 µM (inactive) in the assay on CAKI-1; 24.7 µM (inactive) with DU-145; 9.16 µM (inactive) in the assay on HCT-116; 5.85 µM (inactive) in the assay on HL-60. The GI50 in the assay on HOP-92 was 7.28 µM (inactive); with LOX IMVI, 14 µM (inactive); in the assay with MDA-MB-435, 14.7 µM (inactive); with MOLT-4, 3.18 µM (inactive); in the assay with NCI-H23 it was 4.24 µM (inactive); with RPMI-8226 it was 10.4 µM (inactive). Moreover, the GI50 in the assay with SF-295 was 13.2 µM (inactive); in the assay with SF-539 it was 30.9 µM (inactive); with SK-MEL-28, 18.5 µM (inactive); with SK-MEL-2, 16.9 µM (inactive); in the assay with SNB-19, 12.2 µM (inactive); in the assay on SNB-75 it was 22.4 µM (inactive). Moreover, the GI50 in the assay on SW-620 is 9.1 µM (inactive).
With `CCOC(=O)C(C(N)=O)C1=Nc2cc([N+](=O)[O-])ccc2N/C1=C\C(=O)c1ccccc1` (stereo unspecified), the GI50 in the assay with 786-0 was 11.4 µM (inactive); with ACHN, 15.3 µM (inactive); in the assay on CAKI-1 it was 22.9 µM (inactive); in the assay with DU-145, 13.5 µM (inactive); with HCT-116, 15 µM (inactive); in the assay on HL-60, 8.93 µM (inactive). In addition, the GI50 in the assay with HOP-92 is 15.4 µM (inactive); with LOX IMVI, 14.1 µM (inactive); in the assay on MDA-MB-435, 15.8 µM (inactive); in the assay on Malme-3M, 19.9 µM (inactive); in the assay on NCI-H23 it was 11.5 µM (inactive); with RPMI-8226, 11.1 µM (inactive). The GI50 with SF-295 is 16.7 µM (inactive); in the assay with SF-539, 15.1 µM (inactive); with SK-MEL-28, 25.6 µM (inactive); with SK-MEL-2, 15.3 µM (inactive); with SNB-19, 18.5 µM (inactive); in the assay with SNB-75, 17.7 µM (inactive). For the same compound, in the assay on SW-620, the GI50 was 15.6 µM (inactive).
Consider `Cc1ccc(Nc2nc(N)nc3c2ncn3C2OC(CO)C(O)C2O)cc1` (stereo unspecified), for which the GI50 in the assay on 786-0, in the assay on ACHN, in the assay with CAKI-1, in the assay on DU-145, in the assay with HCT-116 and in the assay on HL-60 was > 100 µM (inactive) in each case. Also, the GI50 in the assay on HOP-92, in the assay with LOX IMVI, with MDA-MB-435, in the assay on MOLT-4, in the assay on Malme-3M and in the assay with NCI-H23 was > 100 µM (inactive) in each case. The GI50 in the assay with RPMI-8226, in the assay with SF-295, with SF-539, in the assay with SK-MEL-28, in the assay with SK-MEL-2 and with SNB-19 was > 100 µM (inactive) each time. In addition, the GI50 with SNB-75 and with SW-620 was > 100 µM (inactive) throughout.
As to `COc1nc(N)nc2c1ncn2C1CC(O)C(CO)O1` (stereo unspecified), the GI50 with 786-0, with ACHN, in the assay with CAKI-1, with DU-145, in the assay with HCT-116 and with HL-60 was > 100 µM (inactive) throughout. Moreover, the GI50 in the assay on HOP-92, in the assay with LOX IMVI, with MDA-MB-435, in the assay with MOLT-4, with Malme-3M and in the assay with NCI-H23 was > 100 µM (inactive) each time. Moreover, the GI50 in the assay with RPMI-8226, in the assay with SF-295, in the assay on SF-539, with SK-MEL-28, in the assay with SK-MEL-2 and with SNB-19 was > 100 µM (inactive) in each case. In addition, the GI50 in the assay with SNB-75 and in the assay on SW-620 was > 100 µM (inactive) throughout.
Take `c1ccc(-c2nc(-c3ccccc3)c(-c3ccccc3)[nH]2)cc1`: the GI50 in the assay on 786-0 is 54 µM (inactive); in the assay on ACHN, > 100 µM (inactive); in the assay with CAKI-1 it was > 100 µM (inactive); with DU-145, > 100 µM (inactive); in the assay on HCT-116, 71.9 µM (inactive); in the assay on HL-60, 18.1 µM (inactive). Further, the GI50 in the assay with HOP-92 is > 100 µM (inactive); in the assay with LOX IMVI, > 100 µM (inactive); with MDA-MB-435, > 100 µM (inactive); in the assay with MOLT-4, > 35.8 µM (inactive); with Malme-3M it was 36.1 µM (inactive); in the assay on NCI-H23, > 100 µM (inactive). Besides, the GI50 in the assay with RPMI-8226 is > 47.6 µM (inactive); in the assay on SF-295 it was > 100 µM (inactive); in the assay with SF-539, > 100 µM (inactive); in the assay on SK-MEL-28, > 100 µM (inactive); with SK-MEL-2, > 100 µM (inactive); with SNB-19 it was > 100 µM (inactive). The GI50 with SNB-75 was 75 µM (inactive); in the assay on SW-620, > 100 µM (inactive).
